Assay results taken from US20040110771A1, “7-(r)-aminotriazolopyrimidines, the production thereof and use of the same for combatting phytopathogenic fungi” (priority 2000, published 2004).

Experiments:
Type in all cases: in vivo
Septoria tritici = assay: Protective activity against Septoria foliar blotch disease of wheat caused by Septoria tritici; settings: wheat seedlings "Riband", inoculated 24 h after spraying, 2 weeks
Method: The active compounds were prepared separately or jointly as a 10% strength emulsion in a mixture of 70% by weight of cyclohexanone, 20% by weight of Nekanil® LN (Lutensol® AP6, wetting agent having emulsifying and dispersing action based on ethoxylated alkylphenols) and 10% by weight of Wettol® EM (nonionic emulsifier based on ethoxylated castor oil) and diluted with water to the desired concentration.
Leaves of potted wheat seedlings of the cultivar “Riband” were sprayed to runoff point with an aqueous preparation of active compound which had been prepared from a stock solution made of 10% of active compound, 85% of cyclohexanone and 5% of emulsifier. 24 hours after the spray coating had dried on, they were inoculated with an aqueous spore suspension of Septoria tritici. The suspension contained 2.0×10^6 spores/ml. The test plants were then placed in a greenhouse at 18-22° C. and a relative atmospheric humidity of close to 100%. After 2 weeks, the extent of the development of the disease was determined visually in % infection of the entire leaf area.

[1] = tested on: Blumeria graminis forma specialis tritici; assay: Activity against mildew of wheat caused by Blumeria graminis forma specialis tritici; settings: wheat seedlings "Kanzler", dusted with spores 24 h after spraying, 7 days
How it was run: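 Protective test: Blumeria graminis f. sp. tritici spores dusted onto cv. Kanzler wheat seedling leaves 24 h after spray deposit of aqueous compound preparation had dried. After 7 days in greenhouse (20-24° C., 60-90% relative humidity), infection estimated by eye as % of total leaf area.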

Pyrenophora teres = assay: Activity against net blotch of barley caused by Pyrenophora teres; settings: barley seedlings "Igri", inoculated 24 h after spraying, 6 days
How it was run: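 Disease was read as visually estimated % infection of total leaf area 6 days after inoculation (greenhouse, 20-24° C, 95-100% humidity). Seedlings of cultivar Igri had been sprayed to runoff point with diluted compound emulsion and inoculated with a P. teres spore suspension 24 h later.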

Puccinia recondita = assay: Curative activity against brown rust of wheat caused by Puccinia recondita; settings: curative spray 24 h after inoculation, wheat seedlings "Kanzler", 7 days
How it was run: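 Wheat seedlings (cv. Kanzler) inoculated with brown rust spores and held 24 h at 90–95% humidity and 20–22°C, then sprayed to runoff with the emulsified compound the next day. Rust development on leaves scored after 7 days in greenhouse at 20–22°C and 65–70% relative humidity.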

Row | Structure (SMILES) | % infection of the leaves after application of an aqueous preparation comprising . . . ppm of active compound (Septoria tritici; 16 ppm) [%] | % infection of the leaves after application of an aqueous preparation comprising . . . ppm of active compound (Septoria tritici; 63 ppm) [%] | % infection of the leaves after application of an aqueous preparation comprising . . . ppm of active compound (Septoria tritici; 250 ppm) [%] | % infection of the leaves after application of an aqueous preparation comprising . . . ppm of active compound ([1]; 16 ppm) [%] | % infection of the leaves after application of an aqueous preparation comprising . . . ppm of active compound ([1]; 63 ppm) [%] | % infection of the leaves after application of an aqueous preparation comprising . . . ppm of active compound ([1]; 250 ppm) [%] | % infection of the leaves after application of an aqueous preparation comprising . . . ppm of active compound (Pyrenophora teres; 250 ppm) [%] | % infection of the leaves after application of an aqueous preparation comprising . . . ppm of active compound (Pyrenophora teres; 16 ppm) [%] | % infection of the leaves after application of an aqueous preparation comprising . . . ppm of active compound (Pyrenophora teres; 63 ppm) [%] | % infection of the leaves after application of an aqueous preparation comprising . . . ppm of active compound (Puccinia recondita; 16 ppm) [%] | % infection of the leaves after application of an aqueous preparation comprising . . . ppm of active compound (Puccinia recondita; 63 ppm) [%] | % infection of the leaves after application of an aqueous preparation comprising . . . ppm of active compound (Puccinia recondita; 250 ppm) [%]
1 | COc1cc(F)c(-c2c(Cl)nc3ncnn3c2N[C@@H](C)C(C)C)c(F)c1 [comparison (S)-amine of I.-17] | 90 | 90 | 90 | 100 | 100 | 100 | – | – | – | – | – | –
2 | CC[C@H](C)Nc1c(-c2c(F)c(F)c(F)c(F)c2F)c(Cl)nc2ncnn12 [comparison (S)-amine of I.-19] | 90 | 90 | 90 | – | 30 | 30 | 80 | – | – | – | – | –
3 | CC(C)C(C)Nc1c(-c2c(Cl)cccc2Cl)c(Cl)nc2ncnn12 (stereo not shown) [I.-8] | 70 | 30 | 30 | – | – | – | 15 | 40 | 15 | – | – | –
4 | CC[C@H](C)Nc1c(-c2c(F)cccc2F)c(Cl)nc2ncnn12 [comparison (S)-amine of I.-4] | 100 | 100 | 90 | 100 | 100 | 100 | – | – | – | 100 | 100 | 100
5 | C[C@@H](Nc1c(-c2ccccc2Cl)c(Cl)nc2ncnn12)C(C)(C)C (single isomer, unassigned) [I.-44b] | 30 | 10 | 10 | – | – | – | – | – | – | – | – | –
6 | CC(C)[C@@H](C)Nc1c(-c2c(F)c(F)c(F)c(F)c2F)c(Cl)nc2ncnn12 [I.-20] | 10 | 10 | 10 | 30 | 20 | 5 | 0 | 30 | 10 | – | – | –
7 | CCC(C)Nc1c(-c2c(F)cccc2F)c(Cl)nc2ncnn12 (stereo not shown) [I.-4] | 20 | 15 | 3 | 80 | 60 | 60 | – | – | – | 40 | 20 | 10
8 | CC(C)[C@@H](C)Nc1c(-c2c(F)cccc2Cl)c(Cl)nc2ncnn12 [I.-2] | 0 | 0 | 0 | – | 40 | 40 | – | – | – | 15 | 5 | 5
9 | CC(C)C(C)Nc1c(-c2ccccc2C(F)(F)F)c(Cl)nc2ncnn12 (stereo not shown) [I.-25] | 0 | 0 | 0 | – | – | – | – | – | – | – | – | –
10 | CC(C)[C@H](C)Nc1c(-c2c(F)c(F)c(F)c(F)c2F)c(Cl)nc2ncnn12 [comparison (S)-amine of I.-20] | 90 | 90 | 90 | 80 | 40 | 40 | 7 | 100 | 40 | – | – | –
11 | COc1cc(F)c(-c2c(Cl)nc3ncnn3c2N[C@H](C)C(C)(C)C)c(F)c1 [I.-18] | – | – | 30 | – | – | – | – | – | – | – | – | –
12 | COc1cc(F)c(-c2c(Cl)nc3ncnn3c2N[C@@H](C)C(C)(C)C)c(F)c1 [comparison (S)-amine of I.-18] | – | – | 80 | – | – | – | – | – | – | – | – | –
13 | CC(Nc1c(-c2ccccc2C(F)(F)F)c(Cl)nc2ncnn12)C(C)(C)C (stereo not shown) [I.-26] | 3 | 0 | 0 | – | – | – | – | – | – | – | – | –
14 | CC(C)[C@H](C)Nc1c(-c2c(Cl)cccc2Cl)c(Cl)nc2ncnn12 [comparison (S)-amine of I.-8] | 90 | 90 | 90 | – | – | – | 100 | 100 | 100 | – | – | –
15 | COc1cc(F)c(-c2c(Cl)nc3ncnn3c2N[C@H](C)C(C)C)c(F)c1 [I.-17] | 10 | 10 | 10 | 60 | 60 | 60 | – | – | – | – | – | –
16 | CCC(C)Nc1c(-c2c(F)c(F)c(F)c(F)c2F)c(Cl)nc2ncnn12 (stereo not shown) [I.-19] | 50 | 10 | 10 | – | 7 | 7 | 30 | – | – | – | – | –
